Experiments:
Stromelysin-1 = Stromelysin-1 (Homo sapiens, UniProt P08254); experiment: Inhibitory concentration against human matrix metalloprotease-3 (MMP-3)
Neutrophil collagenase = Neutrophil collagenase (Homo sapiens, UniProt P22894); experiment: Inhibitory concentration against human matrix metalloprotease-8 (human neutrophil collagenase, MMP-8)
[1] = Affinity ratio of IC50 of MMP-3 to IC50 of MMP-8
[2] = Affinity ratio of IC50 of MMP-8 to IC50 of MMP-3

Chain of Stromelysin-1 (P08254 whole entry): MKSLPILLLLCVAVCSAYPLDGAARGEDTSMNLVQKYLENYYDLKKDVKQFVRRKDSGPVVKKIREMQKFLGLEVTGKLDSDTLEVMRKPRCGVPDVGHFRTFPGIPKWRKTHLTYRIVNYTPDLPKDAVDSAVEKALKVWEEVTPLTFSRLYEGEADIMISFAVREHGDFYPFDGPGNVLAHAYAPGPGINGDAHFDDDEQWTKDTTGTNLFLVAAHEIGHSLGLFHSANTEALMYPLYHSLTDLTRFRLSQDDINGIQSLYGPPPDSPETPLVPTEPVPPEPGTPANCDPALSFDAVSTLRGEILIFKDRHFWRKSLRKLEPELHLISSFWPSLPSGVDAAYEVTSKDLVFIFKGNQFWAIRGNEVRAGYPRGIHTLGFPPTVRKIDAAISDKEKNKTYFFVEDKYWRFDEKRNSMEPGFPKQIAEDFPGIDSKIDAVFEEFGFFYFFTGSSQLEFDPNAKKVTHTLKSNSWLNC
Chain of Neutrophil collagenase (P22894 whole entry): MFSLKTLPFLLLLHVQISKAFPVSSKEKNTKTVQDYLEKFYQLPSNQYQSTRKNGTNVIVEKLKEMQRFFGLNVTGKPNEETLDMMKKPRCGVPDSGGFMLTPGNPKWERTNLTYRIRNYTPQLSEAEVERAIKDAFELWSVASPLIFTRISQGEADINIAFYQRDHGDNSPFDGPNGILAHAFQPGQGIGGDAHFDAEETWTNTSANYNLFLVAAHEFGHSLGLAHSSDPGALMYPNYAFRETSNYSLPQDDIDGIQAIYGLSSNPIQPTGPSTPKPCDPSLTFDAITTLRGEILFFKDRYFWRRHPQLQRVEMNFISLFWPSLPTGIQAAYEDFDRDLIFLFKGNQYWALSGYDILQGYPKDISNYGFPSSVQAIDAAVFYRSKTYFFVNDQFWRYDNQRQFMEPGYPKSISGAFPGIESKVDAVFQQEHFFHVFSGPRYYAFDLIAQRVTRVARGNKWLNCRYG

IC50 (Stromelysin-1; read-out: IC50) | IC50 (Neutrophil collagenase) | log10(IC50 MMP-3/IC50 MMP-8) [1] | IC50 (Stromelysin-1) | Selectivity [2] | Structure (SMILES)
30 nM | 3 nM | 1 |  |  | O=C(c1ccccc1)c1ccc(S(=O)(=O)N2Cc3ccccc3CC2C(=O)NO)cc1 (configuration not stated)
30 nM | 2 nM | 1.18 |  |  | CCCCOc1ccc(S(=O)(=O)N2Cc3ccccc3CC2C(=O)NO)cc1 (configuration not stated)
20 nM | 2 nM | 1 |  |  | Nc1ccc2c(c1)CN(S(=O)(=O)c1ccc(-c3ccc(F)cc3)cc1)C(C(=O)NO)C2 (configuration not stated)
30 nM | 2 nM | 1.18 |  |  | CN(C)c1ccc(Oc2ccc(S(=O)(=O)N3Cc4ccccc4CC3C(=O)NO)cc2)cc1 (configuration not stated)
 |  |  | 10000 nM l-1 | 0.4 | O=C(O)[C@@H]1Cc2ccccc2CN1S(=O)(=O)c1ccc(-c2ccc(F)cc2)cc1
20 nM | 2 nM | 1 |  |  | O=C(NO)C1Cc2ccccc2CN1S(=O)(=O)c1ccc(OCc2ccc(F)cc2)cc1 (configuration not stated)
500 nM | 40 nM | 1.1 |  |  | O=C(NO)C1Cc2ccccc2CN1S(=O)(=O)c1ccc2[nH]c(-c3ccccc3)nc2c1 (configuration not stated)
20 nM | 2 nM | 1 |  |  | CN(C)c1ccc(-c2ccc(S(=O)(=O)N3Cc4ccccc4CC3C(=O)NO)cc2)cc1 (configuration not stated)
20 nM | 3 nM | 0.82 |  |  | O=C(NO)C1Cc2ccccc2CN1S(=O)(=O)c1ccc(-c2ccc(Cl)cc2)cc1 (configuration not stated)
20 nM | 2 nM | 1 |  |  | O=C(NO)C1Cc2ccccc2CN1S(=O)(=O)c1ccc(Oc2ccccc2)cc1 (configuration not stated)
50 nM | 8 nM | 0.8 |  |  | O=C(NO)C1Cc2ccccc2CN1S(=O)(=O)c1ccc(-c2ccon2)s1 (configuration not stated)
3000 nM | 200 nM | 1.18 |  |  | COc1ccc(OC(=O)Nc2cccc(S(=O)(=O)N3Cc4ccccc4CC3C(=O)NO)c2)cc1 (configuration not stated)
500 nM | 50 nM | 1 |  |  | O=C(NO)C1Cc2ccccc2CN1S(=O)(=O)c1ccc(C(F)(F)F)cc1 (configuration not stated)
400 nM | 70 nM | 0.76 |  |  | O=C(NO)C1Cc2ccccc2CN1S(=O)(=O)c1ccc2ccccc2c1 (configuration not stated)
400 nM | 200 nM | 0.3 |  |  | CN(C)c1cccc2c(S(=O)(=O)N3Cc4ccccc4CC3C(=O)NO)cccc12 (configuration not stated)
100 nM | 10 nM | 1 |  |  | O=C(NO)C1Cc2ccccc2CN1S(=O)(=O)c1ccc2oc3ccccc3c2c1 (configuration not stated)
20 nM | 2 nM | 1 |  |  | O=C(NO)C1Cc2ccccc2CN1S(=O)(=O)Cc1ccc(-c2ccccn2)s1 (configuration not stated)
300 nM | 100 nM | 0.48 |  |  | O=C(NO)C1Cc2ccccc2CN1S(=O)(=O)c1ccc(N2CCOCC2)cc1 (configuration not stated)
400 nM |  |  |  | 1.3 | O=C(O)[C@H]1Cc2ccccc2CN1S(=O)(=O)c1ccc(-c2ccc(F)cc2)cc1
6000 nM | 800 nM | 0.88 |  |  | O=C(NCc1csc(S(=O)(=O)N2Cc3ccccc3CC2C(=O)NO)c1)c1ccccc1 (configuration not stated)
 | 2000 nM | 0.7 | 10000 nM l-1 |  | O=C(NO)C1Cc2ccccc2CN1S(=O)(=O)c1cc(S(=O)(=O)c2ccccc2)cs1 (configuration not stated)

The remaining lines, values behind:

Structure (SMILES) | IC50 (Stromelysin-1; read-out: IC50) | IC50 (Neutrophil collagenase) | log10(IC50 MMP-3/IC50 MMP-8) [1] | IC50 (Stromelysin-1) | Selectivity [2]
CC(C)(C)OC(=O)Nc1ccc2c(c1)CN(S(=O)(=O)c1ccc(-c3ccc(F)cc3)cc1)C(C(=O)NO)C2 (configuration not stated) | 100 nM | 10 nM | 1 |  | 
COc1ccc(S(=O)(=O)N2Cc3cc(NC(=O)[C@H](C)N)ccc3CC2C(=O)O)cc1 (some centres not stated) |  | 2000 nM |  | 10000 nM l-1 | 0.7
COc1ccc(S(=O)(=O)N2Cc3cc(NC(=O)OC(C)(C)C)ccc3CC2C(=O)NO)cc1 (configuration not stated) | 20 nM | 3 nM | 0.82 |  | 
COc1ccc(S(=O)(=O)N2Cc3cc(O)ccc3CC2C(=O)NO)cc1 (configuration not stated) | 10 nM | 1 nM | 1 |  | 
COC(=O)c1csc(S(=O)(=O)N2Cc3ccccc3CC2C(=O)NO)c1OC (configuration not stated) | 700 nM | 80 nM | 0.94 |  | 
O=C(NO)C1Cc2ccccc2CN1S(=O)(=O)c1cc(Br)c(Br)s1 (configuration not stated) |  | 500 nM | 1.3 | 10000 nM l-1 | 
CC(C)(C)OC(=O)Nc1ccc2c(c1)CC(C(=O)O)N(S(=O)(=O)c1ccc(-c3ccc(F)cc3)cc1)C2 (configuration not stated) | 400 nM | 30 nM |  |  | 1.12
CCCCCCCCCCCCCCCCS(=O)(=O)N1Cc2ccccc2CC1C(=O)NO (configuration not stated) |  | 3000 nM | 0.52 | 10000 nM l-1 | 
COc1ccc(S(=O)(=O)Oc2ccc3c(c2)CN(S(=O)(=O)c2ccc(OC)cc2)C(C(=O)NO)C3)cc1 (configuration not stated) | 30 nM | 8 nM | 0.57 |  | 
COc1ccc(S(=O)(=O)N2Cc3cc(N)ccc3CC2C(=O)O)cc1 (configuration not stated) |  | 2000 nM |  | 10000 nM l-1 | 0.7
COc1ccc(S(=O)(=O)N2Cc3cc(NC(=O)[C@H](C)NC(=O)OC(C)(C)C)ccc3CC2C(=O)NO)cc1 (some centres not stated) | 20 nM | 2 nM | 1 |  | 
COc1ccc(S(=O)(=O)N2Cc3cc(NC(=O)[C@H](CC(=O)OC(C)(C)C)NC(=O)Cc4ccccc4)ccc3CC2C(=O)NO)cc1 (some centres not stated) | 40 nM | 10 nM | 0.6 |  | 
COc1ccc(S(=O)(=O)N2Cc3ncn(C)c3C[C@@H]2C(=O)O)cc1 |  | 1000 nM | 1 | 10000 nM l-1 | 
CCOC(=O)Oc1ccc2c(c1)CN(S(=O)(=O)c1ccc(OC)cc1)C(C(=O)NO)C2 (configuration not stated) | 20 nM | 2 nM | 1 |  | 
O=C(NO)C1Cc2ccccc2CN1S(=O)(=O)CCc1ccncc1 (configuration not stated) | 900 nM | 30 nM | 1.48 |  | 
COc1ccc(S(=O)(=O)N2Cc3cc(O)ccc3CC2C(=O)O)cc1 (configuration not stated) |  | 3000 nM |  | 10000 nM l-1 | 0.52
COc1ccc(S(=O)(=O)N2Cc3cc(NC(=O)CCC(=O)O)ccc3CC2C(=O)NO)cc1 (configuration not stated) | 20 nM | 40 nM | -0.3 |  | 

— ChEMBL document CHEMBL1132460, “Affinity and selectivity of matrix metalloproteinase inhibitors: a chemometrical study from the perspective of ligands and proteins” (J Med Chem, 1999)
